Test results reported in ChEMBL document CHEMBL3045448, “Enantioselective effects of optically active alpha-methylbenzyl-s-triazine on the root growth of rice and Echinochloa plants and their herbicidal activity” (Biosci Biotechnol Biochem, 2002).
Active and inactive are the calls of the source. The rule behind the calls is not given here.

Columns and labels:
Echinochloa oryzicola [1] = experiment: Herbicidal activity against sprouting stage of Echinochloa oryzicola seedlings assessed as growth inhibition after 3 weeks by paddy pot test under green house conditions; format: functional, organism-based
Oryza sativa = experiment: Phytotoxicity in germinated seedlings of Oryza sativa (rice) assessed as root growth inhibition at 30 uM after 3 to 4 days; format: organism-based; conditions: in vivo
Echinochloa oryzicola [2] = experiment: Herbicidal activity against Echinochloa oryzicola seedlings assessed as appearance of leaf burn symptom after 3 weeks by paddy pot test under green house conditions; format: functional, organism-based
[3] = system: Echinochloa crus-galli var. formosensis; experiment: Phytotoxicity in germinated seedlings of Echinochloa crus-galli var. formosensis (barnyard millet) assessed as root growth inhibition at 30 uM after 3 to 4 days; format: organism-based; conditions: in vivo
Echinochloa oryzicola [4] = experiment: Herbicidal activity against Echinochloa oryzicola seedlings measured per 10 acres after 3 weeks by paddy pot test under green house conditions; format: functional

Row | Compound | growth inhibition (GI) (Echinochloa oryzicola [1]) | growth inhibition (GI) (Oryza sativa) | also measured
1 | CCN(CC)c1nc(Cl)nc(N[C@@H](C)c2ccccc2)n1 | Active | – | –
2 | CC[C@H](C)Nc1nc(Cl)nc(N[C@H](C)c2ccccc2)n1 | – | Toxic | –
3 | CCNc1nc(Cl)nc(N[C@@H](C)c2ccccc2)n1 | – | Toxic | Activity (Echinochloa oryzicola [2]): Active
4 | CCCN(CCC)c1nc(Cl)nc(N[C@H](C)c2ccccc2)n1 | – | Toxic | growth inhibition (GI) [3]: Toxic
5 | CCNc1nc(Cl)nc(NC(C)C)n1 | – | – | Activity (Echinochloa oryzicola [2]): Active
6 | CCC(CC)Nc1nc(Cl)nc(N[C@H](C)c2ccccc2)n1 | – | Toxic | growth inhibition (GI) [3]: Toxic
7 | CCCNc1nc(Cl)nc(N[C@H](C)c2ccccc2)n1 | – | Toxic | –
8 | CCNc1nc(Cl)nc(N[C@H](C)c2ccccc2)n1 | Active | – | Activity (Echinochloa oryzicola [2]): Active
9 | CCNc1nc(Cl)nc(NC(C)c2ccccc2)n1 (configuration not stated) | Active | – | Activity (Echinochloa oryzicola [2]): Active
10 | CCCN(CC)c1nc(Cl)nc(N[C@H](C)c2ccccc2)n1 | – | – | growth inhibition (GI) [3]: Toxic
11 | CNc1nc(Cl)nc(N[C@@H](C)c2ccccc2)n1 | – | Toxic | –
12 | CCCN(C)c1nc(Cl)nc(N[C@H](C)c2ccccc2)n1 | – | Toxic | –
13 | CCN(CC)c1nc(Cl)nc(N[C@H](C)c2ccccc2)n1 | Active | – | Activity (Echinochloa oryzicola [4]): 250 g
14 | C[C@@H](Nc1nc(Cl)nc(NC(C)(C)C)n1)c1ccccc1 | – | – | growth inhibition (GI) [3]: Toxic
15 | CCCCNc1nc(Cl)nc(N[C@H](C)c2ccccc2)n1 | – | Toxic | –
16 | CCN(CC)c1nc(Cl)nc(NC(C)c2ccccc2)n1 (configuration not stated) | Active | – | –
